Assay results published in US20090023773A1, “COMPOSITIONS AND METHODS FOR MODULATING GATED ION CHANNELS” (PainCeptor Pharma Corporation, priority 2007, published 2009).

System: ASIC2a+3
Experiment: Whole cell patch clamp of ASIC2a/3 channel complex heterologously expressed in CHO cells (Example 3)
Assay type: cell-based
Conditions: 50 μM; CHO cells expressing ASIC2a+3; FIG. 10A
Protocol: Another example of an in vitro assessment method consists of using mammalian heterologous expression systems, which are known to the skilled in the art, and include a variety of mammalian cell lines such as COS, HEK, e.g., HEK293 and/or CHO, cells. Cell lines are transfected with gated ion channel(s) and used to perform electrophysiology as follows: All experiments are performed at room temperature (20-25° C.) in voltage clamp using conventional whole cell patch clamp methods (Neher, E., et al. (1978) Pfluegers Arch 375:219-228). The amplifier used is the EPC-9 (HEKA-electronics, Lambrect, Germany) run by a Macintosh G3 computer via an ITC-16 interface. Experimental conditions are set with the Pulse-software accompanying the amplifier. Data is low pass filtered and sampled directly to hard-disk at a rate of 3 times the cut-off frequency. […] The cells are held at a holding voltage of −60 mV and at the start of each experiment the current is continuously measured for 45 s to ensure a stable baseline. […] Current amplitudes are measured at the peak of the responses, and effect of the compounds is calculated as the amplitude at compound equilibrium divided by the amplitude of the current evoked by the pulse just before the compound is included. […] The trace represents the current evoked by the pH drop recorded using whole cell patch clamp electrophysiology.

## Cc1ccc(-c2nc(Nc3ccc(C(=O)O)cc3)c3cc(Cl)ccc3n2)cc1 [Compound 124]
  pH evoked response (ASIC2a+3 current): markedly reduced
